Species on record: Rattus norvegicus
Test: DrugMatrix - Regimen: Daily Repeat
Assay type: toxicity, organism-based, Sprague-Dawley
Parameters: regimen Daily Repeat, gender Male, age 6-8 weeks
Conditions: in vivo, po, route oral GAVAGE, vehicle 100 % WATER; for ABSOLUTE BASOPHIL / ABSOLUTE EOSINOPHIL / ABSOLUTE LYMPHOCYTE / ABSOLUTE MONOCYTE / ABSOLUTE SEGMENTED NEUTROPHIL / BASOPHIL / EOSINOPHIL / ERYTHROCYTE COUNT / HEMATOCRIT / HEMOGLOBIN / LEUKOCYTE COUNT / LYMPHOCYTE / MEAN CORPUSCULAR HEMOGLOBIN / MEAN CORPUSCULAR HEMOGLOBIN CONCENTRATION / MEAN CORPUSCULAR VOLUME / MONOCYTE / NEUTROPHIL / NUCLEATED RED BLOOD CELLS / PLATELET COUNT: tissue Blood; for ALANINE AMINOTRANSFERASE / ALBUMIN / ALKALINE PHOSPHATASE / ASPARTATE AMINOTRANSFERASE / BLOOD UREA NITROGEN / CARBON DIOXIDE / CHLORIDE / CHOLESTEROL / CREATINE PHOSPHOKINASE / CREATININE / GLUCOSE / LACTATE DEHYDROGENASE / LIPASE / PHOSPHORUS / POTASSIUM / SODIUM / TOTAL BILIRUBIN / TOTAL PROTEIN / URIC ACID: tissue Plasma
[1] = 0 mg/kg, 72 h, dose level Control, time 3 day
[2] = 0 mg/kg, 120 h, dose level Control, time 5 day
[3] = 500 mg/kg, 72 h, dose level Low, time 3 day

NCCCCCC(=O)O [AMINOCAPROIC ACID]
ABSOLUTE BASOPHIL [1]: 0 CELLS/uL
ABSOLUTE EOSINOPHIL [1]: 40 CELLS/uL
ABSOLUTE LYMPHOCYTE [1]: 13599.5 CELLS/uL
ABSOLUTE MONOCYTE [1]: 239.33 CELLS/uL
ABSOLUTE SEGMENTED NEUTROPHIL [1]: 1021.17 CELLS/uL
BASOPHIL [1]: 0%
EOSINOPHIL [1]: 0.33%
ERYTHROCYTE COUNT [1]: 5.71 x10E6/uL
HEMATOCRIT [1]: 36.35%
HEMOGLOBIN [1]: 14.05 G/DL
LEUKOCYTE COUNT [1]: 14.9 x10E3/uL
LYMPHOCYTE [1]: 91%
MEAN CORPUSCULAR HEMOGLOBIN [1]: 24.62 pg
MEAN CORPUSCULAR HEMOGLOBIN CONCENTRATION [1]: 38.65 G/DL
MEAN CORPUSCULAR VOLUME [1]: 63.7 fL
MONOCYTE [1]: 1.5%
NEUTROPHIL [1]: 7.17%
NUCLEATED RED BLOOD CELLS [1]: 0.33 /100WBC
PLATELET COUNT [1]: 1225.5 x10E3/uL
ALANINE AMINOTRANSFERASE [1]: 48.5 u/L
ALBUMIN [1]: 4.18 G/DL
ALKALINE PHOSPHATASE [1]: 390.83 u/L
ASPARTATE AMINOTRANSFERASE [1]: 89 u/L
BLOOD UREA NITROGEN [1]: 14.83 mg/dL
CARBON DIOXIDE [1]: 24.83 mmol/L
CHLORIDE [1]: 100.83 MEQ/L
CHOLESTEROL [1]: 72.5 mg/dL
CREATINE PHOSPHOKINASE [1]: 503 u/L
CREATININE [1]: 0.2 mg/dL
GLUCOSE [1]: 163 mg/dL
LACTATE DEHYDROGENASE [1]: 316.83 u/L
LIPASE [1]: 9.83 u/L
PHOSPHORUS [1]: 11.57 mg/dL
POTASSIUM [1]: 6.16 MEQ/L
SODIUM [1]: 142.62 MEQ/L
TOTAL BILIRUBIN [1]: 0.2 mg/dL
TOTAL PROTEIN [1]: 5.8 G/DL
URIC ACID [1]: 1.65 mg/dL
ABSOLUTE BASOPHIL [2]: 0 CELLS/uL
ABSOLUTE EOSINOPHIL [2]: 21 CELLS/uL
ABSOLUTE LYMPHOCYTE [2]: 14288.5 CELLS/uL
ABSOLUTE MONOCYTE [2]: 205.33 CELLS/uL
ABSOLUTE SEGMENTED NEUTROPHIL [2]: 968.5 CELLS/uL
BASOPHIL [2]: 0%
EOSINOPHIL [2]: 0.17%
ERYTHROCYTE COUNT [2]: 5.83 x10E6/uL
HEMATOCRIT [2]: 36.53%
HEMOGLOBIN [2]: 14.4 G/DL
LEUKOCYTE COUNT [2]: 15.48 x10E3/uL
LYMPHOCYTE [2]: 92%
MEAN CORPUSCULAR HEMOGLOBIN [2]: 24.72 pg
MEAN CORPUSCULAR HEMOGLOBIN CONCENTRATION [2]: 39.43 G/DL
MEAN CORPUSCULAR VOLUME [2]: 62.68 fL
MONOCYTE [2]: 1.33%
NEUTROPHIL [2]: 6.5%
NUCLEATED RED BLOOD CELLS [2]: 0.17 /100WBC
PLATELET COUNT [2]: 1280.5 x10E3/uL
ALANINE AMINOTRANSFERASE [2]: 50 u/L
ALBUMIN [2]: 4.28 G/DL
ALKALINE PHOSPHATASE [2]: 380.17 u/L
ASPARTATE AMINOTRANSFERASE [2]: 82.67 u/L
BLOOD UREA NITROGEN [2]: 15.33 mg/dL
CARBON DIOXIDE [2]: 27.17 mmol/L
CHLORIDE [2]: 100.33 MEQ/L
CHOLESTEROL [2]: 60.67 mg/dL
CREATINE PHOSPHOKINASE [2]: 441.5 u/L
CREATININE [2]: 0.16 mg/dL
GLUCOSE [2]: 146 mg/dL
LACTATE DEHYDROGENASE [2]: 189.33 u/L
LIPASE [2]: 9.17 u/L
PHOSPHORUS [2]: 11.67 mg/dL
POTASSIUM [2]: 6.86 MEQ/L
SODIUM [2]: 142.33 MEQ/L
TOTAL BILIRUBIN [2]: 0.2 mg/dL
TOTAL PROTEIN [2]: 6.12 G/DL
URIC ACID [2]: 1.82 mg/dL
ABSOLUTE BASOPHIL [3]: 0 CELLS/uL
ABSOLUTE EOSINOPHIL [3]: 0 CELLS/uL
ABSOLUTE LYMPHOCYTE [3]: 14688.33 CELLS/uL
ABSOLUTE MONOCYTE [3]: 111.67 CELLS/uL
ABSOLUTE SEGMENTED NEUTROPHIL [3]: 1900 CELLS/uL
BASOPHIL [3]: 0%
EOSINOPHIL [3]: 0%
ERYTHROCYTE COUNT [3]: 6.18 x10E6/uL
HEMATOCRIT [3]: 38.13%
HEMOGLOBIN [3]: 14.43 G/DL
LEUKOCYTE COUNT [3]: 16.7 x10E3/uL
LYMPHOCYTE [3]: 87.67%
MEAN CORPUSCULAR HEMOGLOBIN [3]: 23.37 pg
MEAN CORPUSCULAR HEMOGLOBIN CONCENTRATION [3]: 37.87 G/DL
MEAN CORPUSCULAR VOLUME [3]: 61.8 fL
MONOCYTE [3]: 0.67%
NEUTROPHIL [3]: 11.67%
NUCLEATED RED BLOOD CELLS [3]: 0.33 /100WBC
PLATELET COUNT [3]: 1460 x10E3/uL
ALANINE AMINOTRANSFERASE [3]: 62 u/L
ALBUMIN [3]: 4.23 G/DL
ALKALINE PHOSPHATASE [3]: 425.33 u/L
ASPARTATE AMINOTRANSFERASE [3]: 90.33 u/L
BLOOD UREA NITROGEN [3]: 16.67 mg/dL
CARBON DIOXIDE [3]: 27.67 mmol/L
CHLORIDE [3]: 100.33 MEQ/L
CHOLESTEROL [3]: 70 mg/dL
CREATINE PHOSPHOKINASE [3]: 270.33 u/L
CREATININE [3]: 0.23 mg/dL
GLUCOSE [3]: 150.67 mg/dL
LACTATE DEHYDROGENASE [3]: 189.67 u/L
LIPASE [3]: 9.33 u/L
PHOSPHORUS [3]: 11.87 mg/dL
POTASSIUM [3]: 7.16 MEQ/L
SODIUM [3]: 144.07 MEQ/L
TOTAL BILIRUBIN [3]: 0.27 mg/dL
TOTAL PROTEIN [3]: 5.93 G/DL
URIC ACID [3]: 1.67 mg/dL

— ChEMBL document CHEMBL3885881, “DrugMatrix”
